Here are results for one molecule from ChEMBL document CHEMBL1157189, “S-Ribosylhomocysteine analogues with the carbon-5 and sulfur atoms replaced by a vinyl or (fluoro)vinyl unit” (Bioorg Med Chem, 2008).

This assay concerns Bacillus subtilis. Nature of the assay: Inhibition of CO2+ substituted Bacillus subtilis S-ribosyl-homocysteinase.

As for `O[C@@H]1C[C@@H](/C=C/F)O[C@@H]1O` (mixture of isomers), the Ki – broadly, a dissociation constant, usually derived from enzyme kinetics or from competition with a known ligand – is 96 µM.
